Measurements from patent US20170067909A1, “ASSAY-READY RECOMBINANT CELLS TRANSIENTLY OVEREXPRESSING GENES ENCODING DRUG TRANSPORTER PROTEINS AND/OR DRUG METABOLIZING ENZYMES” (Corning Incorporated, priority 2012, published 2017).
Where two headings read alike, the source gives them in different places.

Columns and labels:
OATP1B1*1a [1] = target: T1, OATP1B1*1a (Homo sapiens, UniProt Q9Y6L6); details: read-out: Km, SLC Transporter Cells; substrate 0.25 to 40 μM, incubation 1 min
T1 sequence (Q9Y6L6 1-691): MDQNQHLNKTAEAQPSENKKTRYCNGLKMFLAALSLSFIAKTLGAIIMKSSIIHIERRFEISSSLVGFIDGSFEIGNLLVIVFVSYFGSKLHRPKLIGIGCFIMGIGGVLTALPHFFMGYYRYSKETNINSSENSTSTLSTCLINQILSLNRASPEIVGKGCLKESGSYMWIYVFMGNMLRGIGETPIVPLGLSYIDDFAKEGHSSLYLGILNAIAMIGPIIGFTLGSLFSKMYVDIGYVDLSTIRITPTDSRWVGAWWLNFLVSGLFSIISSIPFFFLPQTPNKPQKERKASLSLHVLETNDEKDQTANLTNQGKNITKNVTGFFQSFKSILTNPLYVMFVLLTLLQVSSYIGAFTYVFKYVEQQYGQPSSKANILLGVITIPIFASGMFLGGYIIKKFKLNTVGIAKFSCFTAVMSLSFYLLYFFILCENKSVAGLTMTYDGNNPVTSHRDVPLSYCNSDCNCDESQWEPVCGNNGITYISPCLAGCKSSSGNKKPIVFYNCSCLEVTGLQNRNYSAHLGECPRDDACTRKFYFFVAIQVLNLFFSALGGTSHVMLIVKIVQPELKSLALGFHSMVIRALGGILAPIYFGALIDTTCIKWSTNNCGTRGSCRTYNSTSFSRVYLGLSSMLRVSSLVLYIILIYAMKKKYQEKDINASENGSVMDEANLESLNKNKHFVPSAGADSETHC

OATP1B1*1a [2] = target: T1, OATP1B1*1a; details: read-out: Km, Literature Report; HEK293 cells; P. Sharma, et al. Xenobiotica 40:24. 2010; cited from earlier work
[3] = target: T2, Organic Anion-Transporting Polypeptide 1B1 (Homo sapiens, UniProt Q9Y6L6); experiment: Positive control plated (adherent) assay, Corning TransportoCells OATP1B1*1a; type: in vitro ADME; details: PC: Plated Assay, Seeded at 250k/well (24-well), assay at 48 hours; 5 uM FMTX, 10 min
T2 construct: host or cells: HEK293 cells, gene delivered by electroporation
T2 sequence (Q9Y6L6 1-691): T1 sequence (Q9Y6L6 1-691)
Source text: A positive control was provided via an adherent assay for characterizing the activity of a drug transporter protein in cryopreserved, Corning® TransportoCells™. Corning® TransportoCells™ transiently transfected with the gene OATP1B1*1a were obtained from Corning Life Sciences (Cat. No. 354859). In order to obtain suitable expression of the Organic Anion-Transporting Polypeptide 1B1 encoded by OATP1B1*1a, the Corning® TransportoCells™ were thawed, cultured, and harvested. […] The cells were cultured via plating in a 24-well PDL-Treated Plate (cell density of 250K cells/well; obtained from Corning Life Sciences) with plating medium for 48 hours at 37° C. and 8% CO2. The plating medium is detailed in Table 16. After 24 hours, cells were refed by 400 uL plating media supplemented with 5 mM sodium butyrate (obtained from Sigma). After 48 hours, cells were washed three times using 0.4 mL prewarmed HBSS (Corning). Then 0.3 mL substrate solution containing 5 uM FMTX were added to the cells and the cells were incubated for 10 min at 37 degree. After 10 min incubation time, the cells were washed 3 times using 0.4 mL cold HBSS. The cells were lysed and subjected to the BCA protein analysis and/or fluorescence analysis to characterize the activity of Organic Anion-Transporting Polypeptide 1B1.

For C[C@]12CC[C@@H]3c4ccc(O)cc4CC[C@H]3[C@@H]1CC[C@@H]2O[C@@H]1O[C@H](C(=O)O)[C@@H](O)[C@H](O)[C@H]1O [E17βG], the Km (OATP1B1*1a [1]) is listed as 6.2 µM and the Km (OATP1B1*1a [2]) is listed as 6.3 µM.

For fluorescein methotrexate [FMTX], the “Uptake Activity OATP1B1” value [3] was 1.06 pmol/mg/min and the “Uptake Ratio” value [3] was 30.6.
